Results from US20080248002A1, “ANTI-ANGIOGENIC CELLULAR AGENT FOR CANCER THERAPY” (priority 1999, published 2008).

What was measured:
EC = assay: BFA pre-treatment of CIK targets, 51Cr release assay, EC; type: cell-based; conditions: targets pre-treated with 10 μM BFA, 20:1 E:T ratio
Procedure: (§1) CIK targets were treated with BFA and/or tunicamycin (TM). […] This resistance is sustained after BFA is removed from the media.

OCI-Ly8 tumor targets = assay: BFA / TM pre-treatment of CIK targets, 51Cr release assay, OCI-Ly8 tumor targets; type: cell-based; conditions: 20:1 E:T ratio
Procedure: as §1

EC targets = assay: BFA / conA treatment of CIK effector cells, lysis of EC targets; type: cell-based, human; conditions: day 21 CIK effector cells pre-incubated 2 hours with 1 μM BFA or 0.1 μM conA
Procedure: (§2) Brefeldin A (BFA) blocks the transport of FasL from intracellular stores to the cell surface (Lippincott-Schwartz et al. (1989) Cell 56:801; Lippincott-Schwartz et al. (1990) Cell 60:821; and Orci et al. (1991) Cell 64:1183). […] BFA was dissolved at 100 μg/ml in 70% ethanol and used fresh or stored up to 4 weeks at −20° C. Prior to cytotoxicity assays, the cells were rinsed three times with PBS and BFA-free fresh medium was added.
(§3) Concanamycin A (conA) depletes perforin contained in cytotoxic T-cell granules (Kataoka et al. (1996) J. Immunol. 156:3678; Ohminami et al. (1999) Blood 93:925). 15 ConA-treated effector cells were used in cytotoxicity assays to approximate the fractional contribution of the perforin/granzyme pathway to the total CIK cell mediated cytotoxicity.
(§4) Louis, Mo.). The cells were then incubated for 2 hours at 37° C. in a humidified atmosphere of 5% CO2.
(§5) BFA treatment of effector cells and the associated block of FasL transport reduced CIK lysis of the tumor target OCI-Ly8 by 33%, but had no effect on the lysis of EC targets (FIG. 4).

OCI-Ly8 = assay: BFA / conA treatment of CIK effector cells, lysis of OCI-Ly8; type: cell-based; conditions: day 21 CIK effector cells pre-incubated 2 hours with 1 μM BFA or 0.1 μM conA
Procedure: as §2, §3, §4, §5

[1] = system: lymphoblastoid target AMK; assay: BFA / TM pre-treatment of CIK targets, 51Cr release assay, lymphoblastoid target AMK; type: cell-based; conditions: target pre-treatment (TM 22 hr), 20:1 E:T ratio
Procedure: as §1

| Molecule | protection of EC from CIK mediated lysis (EC) | effect of target pre-treatment on CIK killing of tumor targets (OCI-Ly8 tumor targets) | effect on CIK lysis of EC targets (EC targets) | reduction of CIK lysis of OCI-Ly8 (OCI-Ly8) [%] | effect of target pre-treatment on CIK killing of lymphoblastoid targets [1] |
| --- | --- | --- | --- | --- | --- |
| C[C@H]1CCC/C=C/[C@@H]2C[C@H](O)C[C@H]2[C@H](O)/C=C/C(=O)O1 [BFA, Brefeldin A] | complete protection | did not reduce killing | no effect | 33 | did not reduce killing |
| C/C=C/[C@H]1O[C@@](O)([C@@H](C)[C@H](O)[C@H](C)[C@H]2OC(=O)/C(OC)=C/C(C)=C/[C@@H](C)[C@@H](O)[C@@H](CC)[C@@H](O)[C@H](C)C/C(C)=C/C=C/[C@@H]2OC)C[C@@H](O[C@H]2C[C@@H](O)[C@H](OC(N)=O)[C@@H](C)O2)[C@@H]1C [Con A, Concanamycin A] |  |  | completely abolished EC lysis | 66 |  |
| tunicamycin [TM] |  | Neither TM or TM and BFA together altered CIK mediated lysis |  |  | rendered susceptible |
